Laboratory results published in patent publication US12415793B2, “Modulators of TMEM16A for treating respiratory disease” (TMEM16A Limited, priority 2020, dated 2025).

Biological target: T1, human TMEM16A (TMEM16Aabc variant) (Homo sapiens, UniProt Q5XXA6, DEL476-501)
T1 sequence (Q5XXA6 with tags, fused parts or gaps isoform Q5XXA6-5 DEL539-564): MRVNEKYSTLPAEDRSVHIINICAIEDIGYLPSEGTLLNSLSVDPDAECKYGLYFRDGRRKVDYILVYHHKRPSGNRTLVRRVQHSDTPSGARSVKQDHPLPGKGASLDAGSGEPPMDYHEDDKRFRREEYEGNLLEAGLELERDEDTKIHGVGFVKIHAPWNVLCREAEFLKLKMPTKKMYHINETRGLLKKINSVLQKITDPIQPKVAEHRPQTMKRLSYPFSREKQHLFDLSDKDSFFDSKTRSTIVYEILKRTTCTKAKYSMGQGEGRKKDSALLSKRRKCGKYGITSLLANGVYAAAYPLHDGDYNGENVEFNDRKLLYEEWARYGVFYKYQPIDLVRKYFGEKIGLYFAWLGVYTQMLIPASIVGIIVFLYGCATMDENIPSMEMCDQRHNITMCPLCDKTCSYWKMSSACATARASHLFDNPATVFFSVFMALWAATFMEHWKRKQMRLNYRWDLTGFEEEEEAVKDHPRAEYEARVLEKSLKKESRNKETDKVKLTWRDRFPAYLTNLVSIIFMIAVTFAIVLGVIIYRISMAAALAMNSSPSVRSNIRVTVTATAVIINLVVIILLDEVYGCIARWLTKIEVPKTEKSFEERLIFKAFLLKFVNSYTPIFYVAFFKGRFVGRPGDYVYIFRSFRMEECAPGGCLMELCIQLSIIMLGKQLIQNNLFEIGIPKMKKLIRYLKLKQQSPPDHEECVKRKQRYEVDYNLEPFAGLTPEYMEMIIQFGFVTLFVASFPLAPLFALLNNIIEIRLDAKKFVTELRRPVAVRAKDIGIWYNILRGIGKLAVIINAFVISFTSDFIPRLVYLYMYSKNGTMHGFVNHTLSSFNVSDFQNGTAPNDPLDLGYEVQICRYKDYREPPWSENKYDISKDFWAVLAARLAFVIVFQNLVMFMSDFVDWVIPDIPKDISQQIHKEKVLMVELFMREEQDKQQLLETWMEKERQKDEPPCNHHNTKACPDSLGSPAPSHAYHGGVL
Assay: Automated whole-cell patch clamp (Qpatch) assay to detect TMEM16A activity in recombinant cells
Type: cell-based
Conditions: for activation at 3.33 µM: 3.33 μM solution of test compound, percentage increase of baseline TMEM16A current, FRT cells stably expressing human TMEM16A, intracellular calcium at EC20, +70 mV, read-out: % Potentiation @ 3.33 μM Avg; for EC50: calculated from cumulative concentration response curve, FRT-TMEM16A cells, whole-cell patch clamp (Qpatch)
Experimental: Automated Whole-Cell Patch Clamp Assay to Detect TMEM16A Activity in Recombinant Cells
Cell Culture and Preparation
Fisher rat thyroid (FRT) cells stably expressing human TMEM16A (TMEM16Aabc variant; Dr Luis Galietta, Insituto Giannina, Italy) were cultured in T-75 flasks in Hams F-12 media with Coon's modification (Sigma) supplemented with 10% (v/v) foetal bovine serum, penicillin-streptomycin (10,000 U/mL/10000 μg/mL), G-418 (750 μg/mL), L-glutamine (2 mM) and sodium bicarbonate solution (7.5% v/v). At ˜90% confluence cells were harvested for experiments by detachment with a 2:1 (v/v) mixture of Detachin (BMS Biotechnology) and 0.25% (w/v) trypsin-EDTA. Cells were diluted to a density of 3.5-4.5×10^6 cells/mL with media consisting of CHO-S-SFM II (Sigma), 25 mM HEPES (Sigma) and Soy bean trypsin inhibitor (Sigma).
Whole-Cell Patch Clamp Recording
FRT-TMEM16A cells were whole-cell patch clamped using an automated planar patch clamp system (Qpatch, Sophion). Briefly, once high resistance (GOhm) seals were established between the cells and the planar recording array the patch was ruptured using suction pulses to establish the whole-cell recording configuration of the patch clamp technique. The assay employed the following solutions (all reagents Sigma): • Intracellular solution (mM): N-methyl-D-glucamine 130, CaCl2 18.2, MgCl2 1, HEPES 10, EGTA 10, BAPTA 20, Mg-ATP 2, pH 7.25, 325mOsm with sucrose. • Extracellular solution (mM): N-methyl-D-glucamine 130, CaCl2 2, MgCl2 1, HEPES 10, pH 7.3, 320 mOsm with sucrose.
The intracellular solution buffers intracellular calcium at levels required to give ˜20% activation of the maximal TMEM16A mediated current (EC20 for calcium ions). Cells were voltage clamped at a holding potential of −70 mV and a combined voltage step (to +70 mV)/ramp (−90 my to +90 mV) was applied at 0.05 Hz. After a period of current stabilisation test compounds, solubilised in 100% (v/v) DMSO and subsequently diluted into extracellular solution, were applied to generate a cumulative concentration response curve. Each concentration of test compound was incubated for 5 minutes before addition of the next concentration. After the final concentration was tested a supramaximal concentration of either a known active positive modulator or the TMEM16A inhibitor, CaCCinhA01 (Del La Fuente et al, 2008) was added to define the upper and lower limits of the assay.
Compound activity was quantified by measuring the increase in current upon compound addition and expressing this as a percentage increase of baseline TMEM16A current level. Percentage increases in current were determined for each concentration and the data plotted as a function of concentration using either the Qpatch software or Graphpad Prism v6.05 providing the concentration which gave 50% of its maximal effect (EC50) and maximum efficacy (percentage of baseline increase).
In FIG. 1, IBL equals baseline current, I[#1] equals the peak current during test compound concentration 1 incubation period and so on.
Peak TMEM16A current at +70 mV was plotted as a function of time over the assay period. Baseline current (IBL) was measured after a period of stabilisation. The increase in current for each compound addition was determined by taking the peak current during the incubation period and subtracting the current from the previous recording period and then expressing this as a percentage of the baseline current. For test compound concentration 1 in FIG. 1 this is:
For each additional concentration tested the increase in current was determined by subtracting the current from the previous incubation period and normalising the baseline value—for test concentration 2 in FIG. 1 this is:
The values for each test concentration were plotted as a cumulative function of concentration e.g. for test concentration two this would be the sum of the peak changes measured during concentration one plus concentration two.

Row | SMILES | activation at 3.33 µM [%] | EC50 [nM]
1 | CC(C)(C)NC(=O)c1ccc(NC(=O)Cc2cc(Cl)ccc2O)s1 [Example 1, N-tert-Butyl-5-[[2-(5-chloro-2-hydroxy-phenyl)acetyl]amino]thiophene-2-carboxamide] | 107 | 42
2 | CC(C)(C)C(=O)Nc1cccc(C(=O)NCc2cc(Cl)ccc2O)c1 [Example 2, N-[(5-Chloro-2-hydroxy-phenyl)methyl]-3-(2,2-dimethylpropanoylamino)benzamide] | 127 | 
3 | CC(C)(C)C(=O)Nc1ccnc(C(=O)NCc2cc(Cl)ccc2O)c1 [Example 3, N-[(5-Chloro-2-hydroxy-phenyl)methyl]-4-(2,2-dimethylpropanoylamino)pyridine-2-carboxamide] | 81.3 | 
4 | CC(C)(C)NC(=O)c1cc(C(=O)NCc2ccccc2O)ccn1 [Example 4, N2-tert-Butyl-N4-[(2-hydroxyphenyl)methyl]pyridine-2,4-dicarboxamide] | 35.2 | 
5 | CC(C)(C)NC(=O)c1cccc(C(=O)NCc2ccccc2O)c1 [Example 5, N1-tert-Butyl-N3-[(2-hydroxyphenyl)methyl]benzene-1,3-dicarboxamide] | 41.2 | 2910
6 | CC(C)(C)C(=O)Nc1cccc(NC(=O)Cc2cc(Cl)ccc2O)c1 [Example 6, N-[3-[[2-(5-Chloro-2-hydroxy-phenyl)acetyl]amino]phenyl]-2,2-dimethyl-propanamide] | 68.1 | 992
7 | CC(C)(C)C(=O)Nc1cc(NC(=O)Cc2cc(Cl)ccc2O)ccn1 [Example 7, N-[4-[[2-(5-Chloro-2-hydroxy-phenyl)acetyl]amino]-2-pyridyl]-2,2-dimethyl-propanamide] | 156 | 615
8 | CC(C)(C#N)NC(=O)c1ccc(NC(=O)Cc2cc(O)c(C(C)(C)C)cc2F)s1 [Example 8, 5-[[2-(4-tert-Butyl-2-fluoro-5-hydroxy-phenyl)acetyl]amino]-N-(1-cyano-1-methyl-ethyl)thiophene-2-carboxamide] | 134 | 85
9 | CC(C)(CO)c1cc(F)c(CC(=O)Nc2ccc(C(=O)NC3(C(F)(F)F)CC3)s2)cc1O [Example 9, 5-[[2-[2-Fluoro-5-hydroxy-4-(2-hydroxy-1,1-dimethyl-ethyl)phenyl]acetyl]amino]-N-[1-(trifluoromethyl)cyclopropyl]thiophene-2-carboxamide] | 134 | 98

The next lines start with the values.

Row | activation at 3.33 µM [%] | EC50 [nM] | SMILES
10 | 184 | 440 | CC(C)(C)NC(=O)c1csc(NC(=O)Cc2cc(Cl)ccc2O)c1 [Example 1.1, N-tert-Butyl-5-[[2-(5-chloro-2-hydroxy-phenyl)acetyl]amino]thiophene-3-carboxamide]
11 | 237 | 400 | CC(C)(C)NC(=O)c1cc(NC(=O)Cc2cc(Cl)ccc2O)cs1 [Example 1.2, N-tert-Butyl-4-[[2-(5-chloro-2-hydroxy-phenyl)acetyl]amino]thiophene-2-carboxamide]
12 | 120 | 1110 | O=C(Cc1cc(Cl)ccc1O)Nc1ccnc(NC(=O)C2CCCCC2)c1 [Example 7.1, N-[4-[[2-(5-Chloro-2-hydroxy-phenyl)acetyl]amino]-2-pyridyl]cyclohexane carboxamide]
